`CCCNCCOc1ccc(NC(=O)c2n[nH]c3c2C(=O)CCC3)cn1` [Example 4, 4-Oxo-4,5,6,7-tetrahydro-1H-indazole-3-carboxylic acid [6-(2-propylamino-ethoxy)-pyridin-3-yl]-amide] showed a melting point of 120 °C.
